TGI and GI50 data for 17 molecules are collected here from PubChem BioAssay (NCI).

Some test systems named below: NCI-H226 lung; HCT-116 colon; OVCAR-3 ovarian; HCC-2998 colon; CAKI-1 renal; SK-MEL-28 melanoma; NCI-H460 lung; DU-145 prostate; NCI/ADR-RES ovarian.
Assay in all cases: NCI anticancer screen, dose series, 48 h

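Cultured in 96-well plates, cells were exposed to test compound for 48 hours across five concentrations. Abbreviation: GI50, concentration required for 50% inhibition of growth. Definition used: TGI = concentration required for complete inhibition of growth.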

Consider `CC1=NN(c2ccccc2)C(=O)C1N=Nc1ccc(Br)cc1C` (configuration not stated), for which the TGI in the assay with NCI-H226 lung, in the assay on HCT-116 colon, in the assay on OVCAR-3 ovarian, in the assay on HCC-2998 colon, in the assay with CAKI-1 renal and in the assay on SK-MEL-28 melanoma was greater than 100 µM each time. In the assay on NCI-H460 lung, this molecule yielded a TGI greater than 100 µM.
On to `O=S(=O)(O)c1ccc([Se][Se]c2ccc(S(=O)(=O)O)cc2)cc1`, for which the TGI in the assay on NCI-H226 lung, in the assay with HCT-116 colon, with OVCAR-3 ovarian, with HCC-2998 colon, in the assay on CAKI-1 renal and with SK-MEL-28 melanoma was greater than 100 µM throughout. Further, the TGI in the assay with NCI-H460 lung was greater than 100 µM.
`O=Cc1cc2sc(C=O)cc2s1`: the TGI is 59.2 µM with NCI-H226 lung; greater than 100 µM in the assay with HCT-116 colon; greater than 100 µM with OVCAR-3 ovarian; greater than 100 µM in the assay with HCC-2998 colon; greater than 100 µM in the assay with CAKI-1 renal; greater than 100 µM in the assay with NCI-H460 lung.
For the molecule `COc1ccc(-c2oc(C=Nc3ccccc3)c([N+](=O)[O-])c2-c2ccc(OC)c(OC)c2)cc1OC`, the TGI in the assay on NCI-H226 lung, in the assay on HCT-116 colon, in the assay on OVCAR-3 ovarian, in the assay on HCC-2998 colon, with CAKI-1 renal and in the assay on SK-MEL-28 melanoma was greater than 100 µM in each case. This molecule also had a TGI with NCI-H460 lung greater than 100 µM.
In the case of `O=C(C#Cc1ccccc1)Nc1ccccc1CC(c1c[nH]c2ccccc12)c1c[nH]c2ccccc12`, the TGI was 35.2 µM in the assay with NCI-H226 lung; 29.2 µM with OVCAR-3 ovarian; 50.6 µM with HCC-2998 colon; greater than 100 µM in the assay on CAKI-1 renal; 32.4 µM with SK-MEL-28 melanoma.
As to `COC1C[C@H](O[C@@H]2C[C@H](O[C@@H]3C[C@H](O[C@@H]4C(=O)c5c(cc6cc(O[C@H]7C[C@@H](O[C@H]8C[C@@H](O)[C@H](O)C(C)O8)[C@H](O)C(C)O7)c(C)c(O)c6c5O)C[C@H]4C(OC)C(=O)[C@@H](O)[C@@H](C)O)OC(C)[C@H]3O)OC(C)[C@@H]2O)OC(C)[C@@H]1O` (some centres not stated), the GI50 in the assay with DU-145 prostate was 0.125 µM; in the assay on HCT-116 colon, 0.0968 µM; in the assay on NCI/ADR-RES ovarian, greater than 32.5 µM; in the assay on OVCAR-3 ovarian, 0.0936 µM; with HCC-2998 colon it was 0.0961 µM; with CAKI-1 renal it was 8 µM. Besides, in the assay on NCI-H460 lung, the GI50 was 0.0802 µM. Besides, the TGI was greater than 32.5 µM in the assay on DU-145 prostate; greater than 32.5 µM with HCT-116 colon; greater than 32.5 µM in the assay on NCI/ADR-RES ovarian; 0.773 µM with OVCAR-3 ovarian; 0.615 µM with HCC-2998 colon; greater than 32.5 µM with CAKI-1 renal. In the assay with NCI-H460 lung, this molecule came in with a TGI greater than 32.5 µM.
Take `C/C(COc1ccccc1)=N\NC(N)=S`: the TGI in the assay with NCI-H226 lung, in the assay with HCT-116 colon, in the assay with OVCAR-3 ovarian, in the assay with HCC-2998 colon, in the assay with CAKI-1 renal and in the assay with SK-MEL-28 melanoma was greater than 100 µM each time.
`CCCCCCCN(CCCCCCC)C(=N)c1ccc(OC)c2ccccc12`: the GI50 is 1.38 µM with DU-145 prostate; 1.46 µM in the assay with NCI/ADR-RES ovarian; 1.6 µM in the assay with OVCAR-3 ovarian; 1.43 µM with CAKI-1 renal; 1.62 µM with SK-MEL-28 melanoma. Moreover, the TGI in the assay with DU-145 prostate is 2.76 µM; in the assay with NCI/ADR-RES ovarian it was 3.05 µM; with OVCAR-3 ovarian, 3.17 µM; in the assay on CAKI-1 renal it was 2.83 µM; in the assay with SK-MEL-28 melanoma, 3.17 µM.
Take `Cc1cc(NCCCCCCCCNc2cc(C)nc3cc(N(C)C)ccc23)c2ccc(N(C)C)cc2n1`: the TGI with HCT-116 colon turned out to be 14 µM; in the assay with OVCAR-3 ovarian, 18.4 µM; with CAKI-1 renal, 72.1 µM; with SK-MEL-28 melanoma, 4.48 µM; in the assay on NCI-H460 lung, 19.5 µM.
With `COc1ccc(C2[C@@H](Cl)C(=O)N2c2ccc(OC)cc2)cc1` (some centres not stated), the TGI in the assay with NCI-H226 lung, in the assay with HCT-116 colon, with OVCAR-3 ovarian, in the assay on HCC-2998 colon, in the assay on CAKI-1 renal and in the assay on SK-MEL-28 melanoma was greater than 100 µM in each case. Besides, the TGI in the assay with NCI-H460 lung was greater than 100 µM.
As to `CCOC1=C2N=C(C(CC)c3ccc(F)cc3)N=C2C(=O)c2ccccc21` (configuration not stated), the TGI with NCI-H226 lung is 41.6 µM; in the assay with HCT-116 colon, greater than 61.3 µM; with OVCAR-3 ovarian it was greater than 91.1 µM; in the assay with HCC-2998 colon, greater than 100 µM; in the assay with CAKI-1 renal it was 84.7 µM; in the assay on SK-MEL-28 melanoma it was greater than 89.4 µM. Also, the TGI in the assay with NCI-H460 lung was greater than 79.8 µM.
Consider `CC1O[C@@H]2CCCCC(=O)[C@]2(C)[C@H]1C` (some centres not stated), for which the TGI in the assay with NCI-H226 lung, in the assay with HCT-116 colon, in the assay on OVCAR-3 ovarian, with HCC-2998 colon, with CAKI-1 renal and with SK-MEL-28 melanoma was greater than 100 µM each time. Further, the TGI in the assay on NCI-H460 lung was greater than 100 µM.
Turning to `CCC(/C(=N/NC(=O)C[N+](C)(C)C)c1ccccc1)C1OC(=O)c2ccccc21` (configuration not stated), the TGI in the assay on NCI-H226 lung, in the assay with HCT-116 colon, in the assay with OVCAR-3 ovarian, in the assay on HCC-2998 colon, with CAKI-1 renal and in the assay on SK-MEL-28 melanoma was greater than 100 µM throughout. In addition, the TGI in the assay with NCI-H460 lung is greater than 100 µM.
With `CC(C)(C)c1cc([Si](C)(C)C)c(C#N)c([Si](C)(C)C)c1`, the TGI in the assay with NCI-H226 lung, in the assay on HCT-116 colon, with OVCAR-3 ovarian, in the assay on HCC-2998 colon, with CAKI-1 renal and with SK-MEL-28 melanoma was greater than 100 µM each time. This molecule gave a TGI in the assay with NCI-H460 lung greater than 100 µM.
For `N#Cc1cc([N+](=O)[O-])ccc1NC(=O)C(=O)Nn1c(=S)[nH]c2ccccc2c1=O`, the TGI with NCI-H226 lung, in the assay with HCT-116 colon, in the assay with OVCAR-3 ovarian, with HCC-2998 colon, with CAKI-1 renal and with SK-MEL-28 melanoma was greater than 100 µM in each case. For the same molecule, the TGI in the assay with NCI-H460 lung was greater than 100 µM.
As for `O=C1C2=C(c3ccccc31)C(c1ccc([N+](=O)[O-])cc1)NC(=S)N2` (configuration not stated), the TGI in the assay with NCI-H226 lung, in the assay with HCT-116 colon, with OVCAR-3 ovarian, in the assay with CAKI-1 renal, with SK-MEL-28 melanoma and with NCI-H460 lung was greater than 100 µM throughout.
Turning to `Clc1cc2ns[s+]c2cc1Cl`, the TGI in the assay on NCI-H226 lung, in the assay on HCT-116 colon, in the assay on OVCAR-3 ovarian, in the assay on HCC-2998 colon, with CAKI-1 renal and in the assay on SK-MEL-28 melanoma was greater than 100 µM in each case. This molecule showed a TGI with NCI-H460 lung greater than 100 µM.
